This is an account of results in patent US7893074B2, “2, 4-pyrimidinediamines useful in the treatment of neoplastic diseases, inflammatory and immune system disorders” (Novartis AG, priority 2003, dated 2011).

In general, IC50 refers to the concentration that gives 50% inhibition.

For test [1], the target named is Focal Adhesion Kinase (FAK) (Homo sapiens, UniProt Q05397). As to the kind of experiment: FAK assay system (Focal Adhesion Kinase inhibition). The format is biochemical.
The target of test [2] is IGF-IR (Homo sapiens, UniProt P08069). As to the kind of experiment: Cellular Capture ELISA of IGF-I induced autophosphorylation of the IGF-IR. As to conditions: read-out: IGF-1R IC50. Format: cell-based. As to the method:
In this assay the activity of the compounds of the invention against Insulin-like growth factor I (IGF-I) induced autophosphorylation of the IGF-IR is determined.
A general note: In an ELISA, binding on a coated surface is turned into a signal by an enzyme label.

The test system of test [3] is Mouse mammary carcinoma 4T1 cells. As to the kind of experiment: Anchorage-independent tumor cell growth assay. Format: cell-based. As to the method: Cells are cultured for 2 h and inhibitors are added at various concentrations in a final concentration of 0.1% DMSO. After 48 h, cell growth is assayed with the cell counting kit-8 (Wako Pure Chemical), which uses a water soluble tetrazolium salt WST8. Twenty μL of the reagent is added into each well and cells are further cultured for 2 h. The optical density is measured at 450 nm.

The target in test [4] is FAK (Mus musculus, UniProt P34152). As to the kind of experiment: Phos IC50 (phosphorylation). The format is cell-based.

Like-named read-outs stand apart in the source and are kept apart here.

FAK, sequence (P34152 2-1052): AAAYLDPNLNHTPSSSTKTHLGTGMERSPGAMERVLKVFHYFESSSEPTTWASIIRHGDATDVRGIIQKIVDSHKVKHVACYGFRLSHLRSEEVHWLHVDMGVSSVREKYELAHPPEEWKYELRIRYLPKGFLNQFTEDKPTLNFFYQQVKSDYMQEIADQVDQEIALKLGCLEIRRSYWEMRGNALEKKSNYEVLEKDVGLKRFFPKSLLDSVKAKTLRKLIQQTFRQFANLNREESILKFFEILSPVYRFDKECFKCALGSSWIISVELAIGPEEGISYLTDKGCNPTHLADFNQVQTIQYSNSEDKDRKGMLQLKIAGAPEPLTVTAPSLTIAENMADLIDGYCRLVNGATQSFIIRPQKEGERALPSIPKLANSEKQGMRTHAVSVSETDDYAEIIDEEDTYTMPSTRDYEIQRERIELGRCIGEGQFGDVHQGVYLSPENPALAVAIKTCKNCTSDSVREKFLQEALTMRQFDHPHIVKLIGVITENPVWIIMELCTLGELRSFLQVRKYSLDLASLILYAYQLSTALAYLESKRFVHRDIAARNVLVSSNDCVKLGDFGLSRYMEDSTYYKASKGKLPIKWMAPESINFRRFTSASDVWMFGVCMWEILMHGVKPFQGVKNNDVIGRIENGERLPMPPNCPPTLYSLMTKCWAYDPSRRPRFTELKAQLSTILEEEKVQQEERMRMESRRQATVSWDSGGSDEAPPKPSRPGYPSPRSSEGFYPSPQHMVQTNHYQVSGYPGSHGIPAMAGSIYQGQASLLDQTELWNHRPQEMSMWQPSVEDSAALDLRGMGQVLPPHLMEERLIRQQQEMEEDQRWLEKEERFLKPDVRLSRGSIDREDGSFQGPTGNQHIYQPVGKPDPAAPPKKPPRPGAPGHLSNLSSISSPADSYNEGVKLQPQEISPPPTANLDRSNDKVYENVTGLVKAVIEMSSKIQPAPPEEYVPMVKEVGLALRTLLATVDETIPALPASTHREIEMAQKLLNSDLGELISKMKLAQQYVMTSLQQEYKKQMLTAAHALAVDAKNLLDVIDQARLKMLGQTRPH
IGF-IR, sequence (P08069 31-1367): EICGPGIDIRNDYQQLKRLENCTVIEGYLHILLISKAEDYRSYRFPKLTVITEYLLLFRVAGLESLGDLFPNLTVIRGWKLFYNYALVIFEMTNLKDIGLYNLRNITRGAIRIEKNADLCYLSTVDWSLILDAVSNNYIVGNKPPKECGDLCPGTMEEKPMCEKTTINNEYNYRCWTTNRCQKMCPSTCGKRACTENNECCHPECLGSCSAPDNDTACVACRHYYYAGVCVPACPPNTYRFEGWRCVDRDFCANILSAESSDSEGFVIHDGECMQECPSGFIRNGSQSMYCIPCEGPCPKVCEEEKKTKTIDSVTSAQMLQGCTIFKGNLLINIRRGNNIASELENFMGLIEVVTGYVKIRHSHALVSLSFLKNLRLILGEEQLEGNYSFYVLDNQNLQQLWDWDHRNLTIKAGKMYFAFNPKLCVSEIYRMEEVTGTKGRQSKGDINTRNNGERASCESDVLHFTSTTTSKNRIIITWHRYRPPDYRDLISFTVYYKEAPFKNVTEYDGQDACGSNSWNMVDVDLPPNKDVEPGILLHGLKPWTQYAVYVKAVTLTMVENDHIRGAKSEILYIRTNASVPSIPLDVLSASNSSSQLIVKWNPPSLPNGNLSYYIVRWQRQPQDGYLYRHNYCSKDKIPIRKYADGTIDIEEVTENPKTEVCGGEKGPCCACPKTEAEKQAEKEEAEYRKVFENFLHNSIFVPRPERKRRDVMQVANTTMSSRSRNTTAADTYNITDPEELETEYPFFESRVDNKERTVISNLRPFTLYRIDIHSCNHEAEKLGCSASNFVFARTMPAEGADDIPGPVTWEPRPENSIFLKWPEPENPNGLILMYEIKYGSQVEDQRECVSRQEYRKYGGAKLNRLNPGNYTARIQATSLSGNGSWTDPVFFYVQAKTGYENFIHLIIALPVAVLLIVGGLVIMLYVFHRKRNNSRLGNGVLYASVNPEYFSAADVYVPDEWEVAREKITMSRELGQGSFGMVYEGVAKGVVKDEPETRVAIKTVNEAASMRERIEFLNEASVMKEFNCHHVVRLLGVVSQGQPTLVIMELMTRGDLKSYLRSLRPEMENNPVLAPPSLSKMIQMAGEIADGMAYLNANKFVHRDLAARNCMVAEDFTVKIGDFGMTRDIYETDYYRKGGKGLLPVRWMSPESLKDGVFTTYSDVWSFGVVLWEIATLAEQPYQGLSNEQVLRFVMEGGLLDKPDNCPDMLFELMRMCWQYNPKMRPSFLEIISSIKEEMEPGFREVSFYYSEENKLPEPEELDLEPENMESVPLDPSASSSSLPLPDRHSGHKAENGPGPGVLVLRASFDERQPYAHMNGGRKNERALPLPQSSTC
Focal Adhesion Kinase (FAK), sequence (Q05397 384-706): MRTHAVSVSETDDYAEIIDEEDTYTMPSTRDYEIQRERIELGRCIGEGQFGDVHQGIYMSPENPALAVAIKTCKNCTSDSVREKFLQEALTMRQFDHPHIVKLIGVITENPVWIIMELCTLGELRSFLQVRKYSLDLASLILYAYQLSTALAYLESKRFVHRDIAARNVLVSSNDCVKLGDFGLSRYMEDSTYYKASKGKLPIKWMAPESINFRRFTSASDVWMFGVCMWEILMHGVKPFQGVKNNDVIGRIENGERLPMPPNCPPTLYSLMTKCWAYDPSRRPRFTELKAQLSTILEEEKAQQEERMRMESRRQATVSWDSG

`CNS(=O)(=O)c1ccccc1Nc1nc(Nc2ccc(C)cc2OC)ncc1Br` [Example 3-5]: the IC50 was 21 nM in test [1] (read-out: FAK IC50); over 10000 nM in test [2]; 2000 nM in test [3] (Mus musculus, 4T1); 170 nM in test [4].

As for `CNS(=O)(=O)c1ccccc1Nc1nc(Nc2cccc3[nH]ccc23)ncc1Br` [Example 3-11], the concentration for half-maximal inhibition (IC50) in test [1] (read-out: FAK IC50) stood at 9 nM; in test [2] it was 200 nM; in test [3] (Mus musculus, 4T1) it was 300 nM; in test [4], 40 nM.

With `CNS(=O)(=O)c1ccccc1Nc1nc(Nc2cccc3cn[nH]c23)ncc1Br` [Example 3-13], the IC50 in test [1] (FAK IC50) came to 58 nM; in test [2] it was 740 nM; in test [3] (Mus musculus, 4T1), 600 nM.

As for `CNS(=O)(=O)c1ccccc1Nc1nc(Nc2cc(OC)ccc2OC)ncc1Br` [Example 3-15], the IC50 in test [1] (read-out: FAK IC50) is 7 nM; in test [2], 940 nM; in test [3] (Mus musculus, 4T1), 800 nM; in test [4], 20 nM.

For the compound `CNS(=O)(=O)c1ccccc1Nc1nc(Nc2cc(OC)c(OC)cc2C)ncc1Br` [Example 3-17], the IC50 was 1 to 5 nM in test [1] (FAK assay system, read-out: FAK inhibition IC50); 2.8 nM in test [1] (read-out: FAK IC50); under 80 nM in test [2]; 200 nM in test [3] (Mus musculus, 4T1); 30 nM in test [4].

Take `CNS(=O)(=O)c1ccccc1Nc1nc(Nc2ccc(N3CCOCC3)cc2OC)ncc1Br` [Example 3-19, 2-[5-Bromo-2-(2-methoxy-4-morpholin-4-yl-phenylamino)-pyrimidin-4-ylamino]-N-methyl-benzenesulfonamide]: the IC50 in test [1] (read-out: FAK IC50) turned out to be 6.8 nM; in test [2], 100 nM; in test [3] (Mus musculus, 4T1), 800 nM; in test [4] it was 350 nM.

In the case of `CNS(=O)(=O)c1ccccc1Nc1nc(Nc2cc(-c3ccc(OC)cc3)ccc2C)ncc1Br` [Example 3-25], the IC50 was 22 nM in test [1] (read-out: FAK IC50); 810 nM in test [2]; 300 nM in test [3] (Mus musculus, 4T1); 300 nM in test [4].

With `CNS(=O)(=O)c1ccccc1Nc1nc(Nc2ccc(N3CCC(C(N)=O)CC3)cc2OC)ncc1Br` [Example 3-43], the IC50 is 5.6 nM in test [1] (read-out: FAK IC50); 270 nM in test [2]; 110 nM in test [3] (Mus musculus, 4T1); 200 nM in test [4].

On to `CNS(=O)(=O)c1ccccc1Nc1nc(Nc2ccc(N3CCS(=O)(=O)CC3)cc2OC)ncc1Br` [Example 3-44], for which the IC50 in test [1] (read-out: FAK IC50) came out at 11 nM; in test [2], 90 nM; in test [3] (Mus musculus, 4T1), 90 nM; in test [4], 50 nM.

For the compound `CNS(=O)(=O)c1ccccc1Nc1nc(Nc2ccc(-n3ccnc3)cc2OC)ncc1Br` [Example 3-48], the IC50 in test [1] (read-out: FAK IC50) was 7 nM; in test [2], 210 nM; in test [3] (Mus musculus, 4T1), 300 nM; in test [4], 70 nM.

On to `CNS(=O)(=O)c1ccccc1Nc1nc(Nc2ccc(OC)nc2OC)ncc1Br` [Example 3-50], for which the IC50 in test [1] (read-out: FAK IC50) was found to be 13 nM; in test [2], 1190 nM; in test [3] (Mus musculus, 4T1), 1000 nM; in test [4] it was 120 nM.

In the case of `CNS(=O)(=O)c1ccccc1Nc1nc(Nc2cc(-c3ccncc3)ccc2C)ncc1Br` [Example 3-54], the IC50 is 0.9 nM in test [1] (read-out: FAK IC50), under 80 nM in test [2] and 10 nM in test [4].

As to `CCOc1cc(N2CCOCC2)ccc1Nc1ncc(Br)c(Nc2ccccc2S(=O)(=O)NC)n1` [Example 3-58], the IC50 turned out to be 21 nM in test [1] (read-out: FAK IC50); 140 nM in test [2]; 300 nM in test [3] (Mus musculus, 4T1); 80 nM in test [4].

As for `CNS(=O)(=O)c1ccccc1Nc1nc(Nc2cc(-c3ccncc3)ccc2OC)ncc1Br` [Example 3-65], the IC50 in test [1] (read-out: FAK IC50) was determined as 8 nM; in test [2], 150 nM; in test [3] (Mus musculus, 4T1), 100 nM; in test [4], 80 nM.

In the case of `CNS(=O)(=O)c1ccccc1Nc1nc(Nc2cc(-c3cccnc3)ccc2OC)ncc1Br` [Example 3-66], the IC50 in test [1] (read-out: FAK IC50) is 1 nM; in test [2], 250 nM; in test [3] (Mus musculus, 4T1), 70 nM; in test [4], 80 nM.

For the compound `CNS(=O)(=O)c1ccccc1Nc1nc(Nc2cc(OCCCN3CCOCC3)ccc2OC)ncc1Br` [Example 3-73], the IC50 was found to be 11 nM in test [1] (read-out: FAK IC50); 1630 nM in test [2]; 290 nM in test [3] (Mus musculus, 4T1); 30 nM in test [4].

In the case of `CNS(=O)(=O)c1ccccc1Nc1nc(Nc2ccc(F)cc2OC)ncc1Br` [Example 3-80], the IC50 was found to be 12 nM in test [1] (read-out: FAK IC50); 5000 nM in test [2]; 450 nM in test [3] (Mus musculus, 4T1); 220 nM in test [4].

With `CNS(=O)(=O)c1ccccc1Nc1nc(Nc2cc(F)ccc2OC)ncc1Br` [Example 3-81], the IC50 in test [1] (read-out: FAK IC50) is 21 nM; in test [2] it was over 10000 nM; in test [3] (Mus musculus, 4T1), 980 nM; in test [4] it was 520 nM.

For `CNS(=O)(=O)c1ccccc1Nc1nc(Nc2ccc(-n3ccnc3C)cc2OC)ncc1Br` [Example 3-83], the 50% inhibitory concentration (IC50) in test [1] (FAK IC50) was 20 nM; in test [2], 680 nM; in test [3] (Mus musculus, 4T1), 320 nM.

Take `CNC(=O)c1ccccc1Nc1nc(Nc2ccc(N3CCC(N4CCCCC4)CC3)cc2OC)ncc1Cl` [Example 7-1]: the IC50 in test [1] (read-out: FAK IC50) stood at 4.7 nM; in test [2], 190 nM; in test [3] (Mus musculus, 4T1), 540 nM; in test [4], 600 nM.

With `CNC(=O)c1ccccc1Nc1nc(Nc2ccc(N3CCN(C)CC3)cc2OC)ncc1Cl` [Example 7-3], the IC50 in test [1] (read-out: FAK IC50) came out at 2.9 nM; in test [2] it was 270 nM; in test [3] (Mus musculus, 4T1), 390 nM; in test [4] it was 300 nM.

As for `CNC(=O)c1ccccc1Nc1nc(Nc2ccc(OC3CCN(C)CC3)cc2OC)ncc1Cl` [Example 7-5], the IC50 amounted to 6.2 nM in test [1] (read-out: FAK IC50); 250 nM in test [2]; 200 nM in test [3] (Mus musculus, 4T1); 300 nM in test [4].

With `CNC(=O)c1ccccc1Nc1nc(Nc2ccc(N3CCC(N(C)C)C3)cc2OC)ncc1Cl` (centres unmarked) [Example 7-11], the IC50 in test [1] (read-out: FAK IC50) was 2.5 nM; in test [2] it was 770 nM; in test [3] (Mus musculus, 4T1), 1200 nM; in test [4], 600 nM.

As to `CNC(=O)c1ccccc1Nc1nc(Nc2ccc(N3CCC(N4CCN(C)CC4)CC3)cc2OC)ncc1Cl` [Example 7-14], the IC50 in test [1] (read-out: FAK IC50) is 7.6 nM; in test [2] it was 330 nM; in test [3] (Mus musculus, 4T1), 360 nM; in test [4], 300 nM.

For `CNC(=O)c1ccccc1Nc1nc(Nc2cc(F)ccc2OC)ncc1Br` [Example 8-3], the IC50 in test [1] (read-out: FAK IC50) was 13 nM; in test [2], over 10000 nM; in test [3] (Mus musculus, 4T1), 1000 nM; in test [4], 220 nM.

For `CCNC(=O)c1ccccc1Nc1nc(Nc2ccc(N3CCOCC3)cc2OC)ncc1Cl` [Example 9-5], the IC50 in test [1] (read-out: FAK IC50) amounted to 22 nM; in test [2], 600 nM; in test [3], 1600 nM; in test [4], 360 nM.

For the compound `CCNC1CCN(c2ccc(Nc3ncc(Cl)c(Nc4ccccc4S(=O)(=O)NC(C)C)n3)c(OC)c2)C1` (centres unmarked) [Example 19-2], the IC50 in test [1] (FAK IC50) was 1.6 nM; in test [2] it was 910 nM; in test [3] (Mus musculus, 4T1), 380 nM.

With `COc1cc(OCC2CCCN(C)C2)ccc1Nc1ncc(Cl)c(Nc2ccccc2S(=O)(=O)NC(C)C)n1` (centres unmarked) [Example 19-3], the IC50 was under 1 nM in test [1] (FAK IC50); 640 nM in test [2]; 90 nM in test [3] (Mus musculus, 4T1).

In the case of `COc1cc(N2CCC(N(C)C(C)=O)C2)ccc1Nc1ncc(Cl)c(Nc2ccccc2S(=O)(=O)NC(C)C)n1` (centres unmarked) [Example 19-14], the IC50 in test [1] (FAK IC50) turned out to be 2.6 nM; in test [2], 440 nM; in test [3] (Mus musculus, 4T1), 1130 nM.

Take `CNS(=O)(=O)c1ccccc1Nc1nc(Nc2cc(N3CCC(N(C)C)C3)ccc2OC)ncc1Cl` (centres unmarked) [Example 20-20]: the IC50 in test [1] (read-out: FAK IC50) turned out to be 3.12 nM; in test [2], 100 nM.

Consider `CCCS(=O)(=O)c1ccccc1Nc1nc(Nc2ccc(N3CCC(C(N)=O)CC3)cc2OC)ncc1Cl` [Example 26-5], for which the IC50 in test [1] (FAK IC50) was determined as 2.1 nM; in test [2], 1500 nM; in test [3] (Mus musculus, 4T1), 230 nM.

On to `COc1cc(N2CCOCC2)ccc1Nc1ncc(Cl)c(Nc2ccccc2S(C)(=O)=O)n1` [Example 31-2], for which the IC50 in test [1] (FAK IC50) is 31 nM; in test [2], 420 nM; in test [3] (Mus musculus, 4T1) it was 290 nM.

In the case of `COc1cc(N2CCOCC2)ccc1Nc1ncc(Cl)c(Nc2ccccc2S(=O)(=O)CCC(C)C)n1` [Example 34-4], the IC50 in test [1] (read-out: FAK IC50) is 13 nM; in test [3] (Mus musculus, 4T1), 1220 nM; in test [4], over 10000 nM.

Regarding `COc1cc(N2CCOCC2)ccc1Nc1ncc(Cl)c(Nc2ccccc2S(=O)(=O)Cc2ccccc2)n1` [Example 34-5], the IC50 stood at 51 nM in test [1] (read-out: FAK IC50); 5100 nM in test [3] (Mus musculus, 4T1); 360 nM in test [4].

Turning to `COc1cc(N2CCOCC2)ccc1Nc1ncc(Cl)c(Nc2ccccc2S(=O)(=O)c2ccccc2)n1` [Example 34-6], the IC50 was 14 nM in test [1] (read-out: FAK IC50); 3000 nM in test [3] (Mus musculus, 4T1); over 10000 nM in test [4].

For the compound `CCC[S+]([O-])c1ccccc1Nc1nc(Nc2ccc(F)cc2OC)ncc1Cl` (centres unmarked) [Example 34-7], the IC50 is 27 nM in test [1] (read-out: FAK IC50); 2700 nM in test [3] (Mus musculus, 4T1); over 10000 nM in test [4].

Consider `CCCS(=O)(=O)c1cc(N2CCN(C)CC2)ccc1Nc1nc(Nc2ccc(F)cc2OC)ncc1Cl` [Example 34-8], for which the IC50 in test [1] (read-out: FAK IC50) was 8.7 nM; in test [3] (Mus musculus, 4T1), 1900 nM; in test [4] it was over 10000 nM.

With `CNC(=O)c1cc(N2CCN(C)CC2)ccc1Nc1nc(Nc2ccc(N3CCOCC3)cc2OC)ncc1Cl` [Example 35-1], the IC50 in test [1] (read-out: FAK IC50) is 6.8 nM; in test [3] (Mus musculus, 4T1), 1430 nM; in test [4], over 10000 nM.

As to `CNC(=O)c1cc(N2CCN(C)CC2)ccc1Nc1nc(Nc2cccc3c2ccn3C)ncc1Cl` [Example 35-2], the IC50 in test [1] (read-out: FAK IC50) worked out at 6.1 nM; in test [3] (Mus musculus, 4T1) it was 230 nM; in test [4], 700 nM.
